The series concerns human fibroplasts. Briefly: Membrane integrity test with a vital dye after exposure to perfluorocarbon liquid. It is filed as cell-based. To be noted: biological compatibility statement for the used examples.

Turning to `FC1(F)C(F)(F)C(F)(F)C2(F)C(F)(F)C(F)(F)C(F)(F)C(F)(F)C2(F)C1(F)F` (centres unmarked) [perfluorodecalin], the “toxicity to the cell” value is recorded as “non-toxic”.

Regarding `FC(F)(F)C(F)(F)C(F)(F)C(F)(F)C(F)(F)C(F)(F)C(F)(F)C(F)(F)Br` [perfluorooctylbromide], the “toxicity to the cell” value is given as “non-toxic”.

The record behind these values is patent publication US20080227870A1, “Carcinogen Solvents in Reducing the Carcinogen Concentration of Cells” (priority 2004, published 2008).
